Columns and labels:
mice = assay: acute toxicity, single oral administration; type: in vivo; details: single oral administration of 100 mg/kg
Method: When a physiologically active effective dose of the heat-treated product of the present invention and partially purified product thereof and the compound of the present invention are/is administered to mice, no acute toxicity is noted.

HL-60 cells = assay: analysis of fragmentation of DNA; type: cell-based, human
Method: (2) HL-60 cells which were incubated on an RPMI 1640 medium containing 10% of fetal bovine serum processed at 56° C. for 30 minutes were suspended in an RPMI 1640 medium to make 2.5×10^5 cells/5 ml.
To 5 ml the suspension were added 10 μl of 12.5 mM, 25 mM, 50 mM or 100 mM of a 70% ethanolic solution of 4,5-dihydroxy-2-pentenal, 0.05 mM, 0.5 mM, 5 mM or 50 mM of a 70% ethanolic solution of 4-hydroxy-2-cyclopenten-1-one, 5 mM, 10 mM or 20 mM of a 70% ethanolic solution of 4-(9-adeninyl)-2-cyclopenten-1-one prepared in Example 4-(4), 2.5 mM, 5 mM, 15 mM or 25 mM of a 70% ethanolic solution of 4-(9-guaninyl)-2-cyclopenten-1-one prepared in Example 4-(5) 75 mM, 150 mM or 300 mM of a 70% ethanolic solution of 1,5-epoxy-1-hydroxy-3-penten-2-one prepared in Example 5-(2) or 5 mM, 25 mM or 50 mM of a 70% ethanolic solution of 2-(trans-3,4-dihydroxy-1-butenyl)-4-(trans-2-formylvinyl)-1,3-dioxolane prepared in Example 6-(2) followed by incubating at 37° C. in the presence of 5% of carbon dioxide gas for 24 hours and 48 hours and the resulting cells were subjected to a measurement of apoptosis cells using FACScan by a method mentioned in pages 129-130 of “Experimental Protocol Series—Apoptosis Experiment Protocol” which was an extra issue of “Saibo Kogaku (Cell Technology)” (published by Shujunsha in 1994) and also to a measurement of analysis of fragmentation of DNA by a method mentioned in page 61-63 of “Biomanual UP Series—New Experimental Methods for Apoptosis” (published by Yodosha in 1995).

[1] = system: hepatoblastoma HepG2 cells; assay: cell growth of HepG2 cells, Premix WST-1; type: cell-based, human
Method: HepG2 cells (ACTT HB-8065) which were the cell strains established from the patients suffering from primary hepatoblastoma were suspended in a DMEM medium (manufactured by Gibco) containing 10% of FBS (manufactured by BioWhittaker) to an extent of 3.8×10^3 cells/ml, each 200 μl of the suspension were placed in each well of a 96-well microtiter plate and incubated at 37° C. in the presence of 5% carbon dioxide gas until the cells saturated in an incubator, the medium was exchanged, then 4-hydroxy-2-cyclopenten-1-one or […], the mixture was incubated for 24, 48 or 72 hours, 10 μl of Premix WST-1 (MK 400; manufactured by Takara Shuzo) were added thereto, the mixture was made to react at 37° C. for three hours and the value (A450-650) obtained by subtracting the absorbance at 650 nm (A650) from that at 450 nm (A450) was defined as a degree of cell growth.

human IL-1α = assay: cytokine production in DSEK cells, ELISA; type: cell-based; details: DSEK cell incubation, supernatant every 24 hours
Method: Now, in the DSEK cell incubation, 150 μl/well of the supernatant liquid of the medium were recovered every 24 hours and influence of 4-hydroxy-2-cyclopenten-1-one or 4,5-dihydroxy-2-pentenal on the production of cytokines (human TGF-β, human FGF-β, human IL-1α and human IL-10) was measured using an ELISA-kit specific to each of the cytokine (the kit manufactured by INTERGEN or human FGF-β and human IL-10; and the kit manufactured by Promega for human IL-1α and human TGF-β).

[2] = system: heat shock protein of 70 kDa in HL-60; assay: induction of heat shock protein of 70 kDa, SDS-PAGE and blotting; type: cell-based, human; set-up: key: “−” means no induction; “±” means a little induction; “+” shows the intensity of induction and the more the “+”, the more the induction; ++: “+” shows the intensity of induction and the more the “+”, the more the induction; +++: “+” shows the intensity of induction and the more the “+”, the more the induction; details: six hours
U937 cells = assay: cell growth of U937 cells, Premix WST-1; type: cell-based, human
Method: (1) U937 cells (ATCC CRL-1593) which were […] established from pleural effusion of patients suffering from […] were suspended in an RPMI 1640 medium containing 10% of FBS to make its concentration 5×10^5 cells/ml and each 100 μl of the suspension was placed in each well of a 96-well microtiter plate. […] The mixture was incubated at 37° C. in the presence of carbon dioxide gas and, after 24, 48 and 72 hours, 10 μl of Premix WST-1 (MK 400; manufactured by Takara Shuzo) were added. The mixture was made to react at 37° C. for three hours and the value (A450-650) obtained by subtracting the absorbance at 650 nm (A650) from that at 450 nm (A450) was defined as a degree of cell growth.

| Structure (SMILES) | death (mice) | Degree of Cell Growth ([1]; 25 μM, 24 hours) [A450-650] | Degree of Cell Growth ([1]; 25 μM, 48 hours) [A450-650] | Degree of Cell Growth ([1]; 25 μM, 72 hours) [A450-650] | Degree of Cell Growth ([1]; 50 μM, 24 hours) [A450-650] | Degree of Cell Growth ([1]; 50 μM, 48 hours) [A450-650] | Degree of Cell Growth ([1]; 50 μM, 72 hours) [A450-650] | Degree of Cell Growth ([1]; 100 μM, 24 hours) [A450-650] | Degree of Cell Growth ([1]; 100 μM, 48 hours) [A450-650] | Degree of Cell Growth ([1]; 100 μM, 72 hours) [A450-650] | Degree of Cell Growth ([1]; 150 μM, 24 hours) [A450-650] | Degree of Cell Growth ([1]; 150 μM, 48 hours) [A450-650] | Degree of Cell Growth ([1]; 150 μM, 72 hours) [A450-650] | production of human IL-1α (human IL-1α) | Degree of Cell Growth (U937 cells; 50 μM, 24 hours) [A450-650] | Degree of Cell Growth (U937 cells; 50 μM, 48 hours) [A450-650] | Degree of Cell Growth (U937 cells; 50 μM, 72 hours) [A450-650] | Degree of Cell Growth (U937 cells; 75 μM, 24 hours) [A450-650] | Degree of Cell Growth (U937 cells; 75 μM, 48 hours) [A450-650] | Degree of Cell Growth (U937 cells; 75 μM, 72 hours) [A450-650] | other results |
| --- | --- | --- | --- | --- | --- | --- | --- | --- | --- | --- | --- | --- | --- | --- | --- | --- | --- | --- | --- | --- | --- |
| O=CC=CC(O)CO (single isomer, unassigned) [4,5-dihydroxy-2-pentenal, trans-4,5-dihydroxy-2-pentenal] | no case of death | 3.39 | 2.69 | 1.70 | 1.97 | 2.96 | 1.70 | 1.81 | 2.70 | 0.89 | 1.40 | 0.79 | 0.35 | activated | 0.821 | 1.471 | 1.245 | 0.606 | 0.879 | 0.862 | fragmentation of DNA (HL-60 cells; HL-60, 50 μM final concentration): confirmed; fragmentation of DNA (HL-60 cells; HL-60, 100 μM final concentration): confirmed; fragmentation of DNA (HL-60 cells; HL-60, 200 μM final concentration): confirmed; intensity of induction of heat shock protein of 70 kDa ([2]; HL-60, 1.25 μM): −; Degree of Cell Growth (U937 cells; 100 μM, 24 hours): 0.560 A450-650; Degree of Cell Growth (U937 cells; 100 μM, 48 hours): 0.948 A450-650; Degree of Cell Growth (U937 cells; 100 μM, 72 hours): 0.597 A450-650; Degree of Cell Growth (U937 cells; 150 μM, 24 hours): 0.505 A450-650; Degree of Cell Growth (U937 cells; 150 μM, 48 hours): 0.823 A450-650; Degree of Cell Growth (U937 cells; 150 μM, 72 hours): 0.465 A450-650; Degree of Cell Growth (U937 cells; 200 μM, 24 hours): 0.370 A450-650; Degree of Cell Growth (U937 cells; 200 μM, 48 hours): 0.644 A450-650; Degree of Cell Growth (U937 cells; 200 μM, 72 hours): 0.753 A450-650 |
| O=C/C=C/C1COC(/C=C/C(O)CO)O1 (stereo not drawn) [2-(trans-3,4-dihydroxy-1-butenyl)-4-(trans-2-formylvinyl)-1,3-dioxolane] |  |  |  |  |  |  |  |  |  |  |  |  |  | activated |  |  |  |  |  |  |  |
| Nc1nc2c(ncn2C2C=CC(=O)C2)c(=O)[nH]1 (stereo not shown) [4-(9-guaninyl)-2-cyclopenten-1-one] |  |  |  |  |  |  |  |  |  |  |  |  |  | activated |  |  |  |  |  |  |  |
| O=C1C=CC(O)C1 (stereo not shown) [4-hydroxy-2-cyclopenten-1-one] | no case of death | 1.30 | 0.70 | 0.49 | 1.38 | 0.81 | 0.47 | 1.31 | 0.56 | 0.35 | 1.23 | 0.43 | 0.30 | inhibited | 0.501 | 0.930 | 0.875 | 0.557 | 0.968 | 0.821 | fragmentation of DNA (HL-60 cells; HL-60, 10 μM final concentration): confirmed; intensity of induction of heat shock protein of 70 kDa ([2]; HL-60, 2.5 μM): −; intensity of induction of heat shock protein of 70 kDa ([2]; HL-60, 10 μM): +; Degree of Cell Growth (U937 cells; 100 μM, 24 hours): 0.591 A450-650; Degree of Cell Growth (U937 cells; 100 μM, 48 hours): 1.054 A450-650; Degree of Cell Growth (U937 cells; 100 μM, 72 hours): 0.532 A450-650; Degree of Cell Growth (U937 cells; 150 μM, 24 hours): 0.524 A450-650; Degree of Cell Growth (U937 cells; 150 μM, 48 hours): 1.126 A450-650; Degree of Cell Growth (U937 cells; 150 μM, 72 hours): 0.478 A450-650; Degree of Cell Growth (U937 cells; 200 μM, 24 hours): 0.353 A450-650; Degree of Cell Growth (U937 cells; 200 μM, 48 hours): 0.643 A450-650; Degree of Cell Growth (U937 cells; 200 μM, 72 hours): 0.338 A450-650 |

— patent publication US6809091B1, “Substances capable of inducing apoptosis” (Takara Bio Inc., priority 1998, dated 2004)
